We go through 20 compounds from PubChem BioAssay AID328 (DTP/NCI, 2004).

This assay deals with BDF1 mice, P388 leukemia ip, median survival T/C. Briefly: NCI In Vivo Anticancer Drug Screen. Data for tumor model P388 Leukemia (intraperitoneal) in B6D2F1 (BDF1) mice. The settings on record: endpoint: median survival time, higher = longer survival. Put shortly:
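Each value expresses how treatment altered survival: treated-mouse outcome over vehicle-mouse outcome, both groups bearing the transplanted tumour.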

[1] abbreviates: dose: 100.0 mg/kg/injection, schedule: Q04DX003 (ip), vehicle: saline with Tween-80.
Setting [2] is: dose: 200.0 mg/kg/injection, schedule: Q04DX003 (ip), vehicle: saline with Tween-80.
The mark [3] stands for this setting: dose: 25.0 mg/kg/injection, schedule: Q01DX009 (ip), vehicle: saline.
The mark [4] stands for this setting: dose: 50.0 mg/kg/injection, schedule: Q01DX009 (ip), vehicle: saline.
Where [5] appears, read: dose: 100.0 mg/kg/injection, schedule: Q01DX009 (ip), vehicle: saline.
[6] abbreviates: dose: 12.5 mg/kg/injection, schedule: Q01DX009 (ip), vehicle: saline.
Setting [7] is: dose: 25.0 mg/kg/injection, schedule: Q01DX009 (ip), vehicle: Klucel (hydroxypropylcellulose) (HPC).
The mark [8] stands for this setting: dose: 50.0 mg/kg/injection, schedule: Q01DX009 (ip), vehicle: Klucel (hydroxypropylcellulose) (HPC).
Setting [9] is: dose: 100.0 mg/kg/injection, schedule: Q01DX009 (ip), vehicle: Klucel (hydroxypropylcellulose) (HPC).
The mark [10] stands for this setting: dose: 75.0 mg/kg/injection, schedule: Q04DX003 (ip), vehicle: saline.
[11] abbreviates: dose: 12.5 mg/kg/injection, schedule: Q01DX009 (ip), vehicle: Klucel (hydroxypropylcellulose) (HPC).
Where [12] appears, read: dose: 100.0 mg/kg/injection, schedule: Q01DX009 (ip), vehicle: saline with Tween-80.
Where [13] appears, read: dose: 200.0 mg/kg/injection, schedule: Q01DX009 (ip), vehicle: saline with Tween-80.

Structures are written as SMILES. Values joined by “and” are separate entries in the source; they are usually repeats but may differ in a detail not shown here. Equal entries are not always repeated. Inconclusive results and toxic doses are left out.

`CCCB(O)O`: the T/C is 100 % of control (dose: 100.0 mg/kg/injection, schedule: Q01DX001 (ip), vehicle: saline); 113 % of control (dose: 200.0 mg/kg/injection, schedule: Q01DX001 (ip), vehicle: saline); 95 % of control (dose: 400.0 mg/kg/injection, schedule: Q01DX001 (ip), vehicle: saline).

As for `CCCCN(CCCC)C(=O)C1C=C2c3cccc4[nH]cc(c34)CC2N(C)C1` (stereo not drawn), the T/C (dose: 50.0 mg/kg/injection, schedule: Q01DX009 (ip), vehicle: water) was 105 % of control; the T/C (dose: 100.0 mg/kg/injection, schedule: Q01DX009 (ip), vehicle: water) is 94 % of control; the T/C (dose: 100.0 mg/kg/injection, schedule: Q04DX003 (ip), vehicle: water) was 105 % of control; the T/C (dose: 200.0 mg/kg/injection, schedule: Q01DX009 (ip), vehicle: water) was 114 % of control; the T/C (dose: 200.0 mg/kg/injection, schedule: Q04DX003 (ip), vehicle: water) is 94 % of control; the T/C (dose: 400.0 mg/kg/injection, schedule: Q01DX009 (ip), vehicle: water) was 109 % of control. The T/C (dose: 400.0 mg/kg/injection, schedule: Q04DX003 (ip), vehicle: water) was 97 % of control.

As to `CCOC(=O)CCCc1ccccc1`, the T/C reads like this: under setting [1], 113 % of control; under setting [2], 100 % of control; (dose: 400.0 mg/kg/injection, schedule: Q04DX003 (ip), vehicle: saline with Tween-80) 100 % of control.

Consider `C(COCCOCC1CO1)OCCOCC1CO1` (stereo not drawn), for which the T/C was 109 % of control (dose: 50.0 mg/kg/injection, schedule: Q01DX010 (ip), vehicle: saline); 150 % of control (dose: 200.0 mg/kg/injection, schedule: Q01DX010 (ip), vehicle: saline); 154 % of control and 172 % of control (dose: 400.0 mg/kg/injection, schedule: Q01DX010 (ip), vehicle: saline).

In the case of `CC(Cc1ccccc1)C(N)=O` (stereo not drawn), the T/C (dose: 50.0 mg/kg/injection, schedule: Q04DX003 (ip), vehicle: saline with Tween-80) is 105 % of control; the T/C under setting [1] is 98 % of control; the T/C under setting [2] was 113 % of control.

As to `CC(=O)NC(CC(=O)O)C(=O)O` (stereo not drawn), the T/C reads like this: under setting [3], 95 % of control; under setting [4], 95 % of control; under setting [5], 105 % of control.

`NCCc1c[nH]c2ccc(F)cc12`: the T/C runs as follows: under setting [6], 91 % of control; under setting [3], 98 % of control; under setting [4], 98 % of control; under setting [5], 91 % of control.

On to `CC/C(=C(\c1ccccc1)c1ccc(OCCN(C)C)cc1)c1ccccc1`, for which the T/C by setting is: under setting [7], 122 % of control; under setting [8], 122 % of control; under setting [9], 102 % of control and 108 % of control.

`C/C(=N\NC(N)=O)c1ccc(Cl)cc1`: the T/C under setting [8] is 94 % of control and the T/C under setting [9] was 108 % of control.

Regarding `CC/C=N/NC(N)=S`, the T/C (dose: 3.13 mg/kg/injection, schedule: Q01DX009 (ip), vehicle: saline with Tween-80) was 94 % of control; the T/C (dose: 6.25 mg/kg/injection, schedule: Q01DX009 (ip), vehicle: saline with Tween-80) is 94 % of control; the T/C (dose: 12.5 mg/kg/injection, schedule: Q01DX009 (ip), vehicle: saline with Tween-80) was 94 % of control.

Regarding `C(=N\Nc1nc2ccccc2o1)/c1ccncc1`, the T/C is 100 % of control and 104 % of control under setting [9]; 100 % of control (dose: 100.0 mg/kg/injection, schedule: Q04DX003 (ip), vehicle: Klucel (hydroxypropylcellulose) (HPC)); 109 % of control (dose: 200.0 mg/kg/injection, schedule: Q01DX009 (ip), vehicle: Klucel (hydroxypropylcellulose) (HPC)); 95 % of control (dose: 200.0 mg/kg/injection, schedule: Q04DX003 (ip), vehicle: Klucel (hydroxypropylcellulose) (HPC)); 105 % of control and 109 % of control (dose: 400.0 mg/kg/injection, schedule: Q01DX009 (ip), vehicle: Klucel (hydroxypropylcellulose) (HPC)); 100 % of control (dose: 400.0 mg/kg/injection, schedule: Q04DX003 (ip), vehicle: Klucel (hydroxypropylcellulose) (HPC)).

Consider `Cn1cnc(C(N)=S)c1N`, for which the T/C is 112 % of control under setting [10]; 100 % of control (dose: 100.0 mg/kg/injection, schedule: Q01DX001 (ip), vehicle: Klucel (hydroxypropylcellulose) (HPC)); 100 % of control (dose: 150.0 mg/kg/injection, schedule: Q04DX003 (ip), vehicle: saline); 95 % of control (dose: 200.0 mg/kg/injection, schedule: Q01DX001 (ip), vehicle: Klucel (hydroxypropylcellulose) (HPC)); 112 % of control (dose: 300.0 mg/kg/injection, schedule: Q04DX003 (ip), vehicle: saline); 100 % of control (dose: 400.0 mg/kg/injection, schedule: Q01DX001 (ip), vehicle: Klucel (hydroxypropylcellulose) (HPC)).

For `CCSc1nc2ccc(Nn3nnnc3-c3ccccc3)cc2s1`, the T/C is 272 % of control under setting [11], 98 % of control under setting [7] and 118 % of control under setting [8].

Regarding `CCCOC(=O)C1(N)CCCC1`, the T/C by setting is: under setting [12], 100 % of control; under setting [13], 90 % of control.

For `CC(C)C1=C(O)C2=C(C(=O)C1=O)C1(C)CCCC(C)(C)C1CC2O` (stereo not drawn), the T/C is, setting by setting: (dose: 2.0 mg/kg/injection, schedule: Q01DX010 (ip), vehicle: carboxymethylcellulose (CMC)) 100 % of control; (dose: 5.0 mg/kg/injection, schedule: Q01DX010 (ip), vehicle: carboxymethylcellulose (CMC)) 95 % of control; (dose: 10.0 mg/kg/injection, schedule: Q01DX010 (ip), vehicle: carboxymethylcellulose (CMC)) 90 % of control; (dose: 20.0 mg/kg/injection, schedule: Q01DX010 (ip), vehicle: carboxymethylcellulose (CMC)) 105 % of control.

Turning to `CC1(C)N=C(N)N=C(N)N1c1ccc(OCCCOc2ccc(S(=O)(=O)F)cc2)c(Cl)c1`, the T/C is, setting by setting: (dose: 0.66 mg/kg/injection, schedule: Q01DX009 (ip), vehicle: saline) 108 % of control; (dose: 0.99 mg/kg/injection, schedule: Q01DX009 (ip), vehicle: saline) 104 % of control; under setting [6], 165 % of control; under setting [3], 115 % of control; (dose: 33.0 mg/kg/injection, schedule: Q04DX003 (ip), vehicle: saline) 109 % of control and 120 % of control; (dose: 50.0 mg/kg/injection, schedule: Q04DX003 (ip), vehicle: saline) 114 % of control and 120 % of control. Under setting [10], the T/C was 114 % of control.

Take `O=C(c1ccccc1)C(SC(C(=O)c1ccccc1)c1ccccc1)c1ccccc1` (stereo not drawn): the T/C is, setting by setting: (dose: 50.0 mg/kg/injection, schedule: Q01DX009 (ip), vehicle: saline with Tween-80) 98 % of control; under setting [12], 97 % of control; under setting [13], 91 % of control.

For `O=C1c2c(O)ccc(O)c2C(=O)c2c(NCCNCCO)ccc(NCCNCCO)c21`, the T/C is 270 % of control (dose: 0.78 mg/kg/injection, schedule: Q01DX009 (ip), vehicle: water); 181 % of control (dose: 1.56 mg/kg/injection, schedule: Q01DX009 (ip), vehicle: water); 90 % of control (dose: 3.13 mg/kg/injection, schedule: Q01DX009 (ip), vehicle: water).

For `C=C(Br)CNCCCCCC`, the T/C reads like this: (dose: 4.68 mg/kg/injection, schedule: Q04DX003 (ip), vehicle: Klucel (hydroxypropylcellulose) (HPC)) 95 % of control; (dose: 9.37 mg/kg/injection, schedule: Q04DX003 (ip), vehicle: Klucel (hydroxypropylcellulose) (HPC)) 100 % of control; under setting [11], 109 % of control; (dose: 18.75 mg/kg/injection, schedule: Q04DX003 (ip), vehicle: Klucel (hydroxypropylcellulose) (HPC)) 108 % of control; under setting [7], 118 % of control; (dose: 37.5 mg/kg/injection, schedule: Q04DX003 (ip), vehicle: Klucel (hydroxypropylcellulose) (HPC)) 86 % of control. Moreover, the T/C under setting [8] was 113 % of control.

As for `CC=C(/C(=C/C)c1ccc(O)cc1)c1ccc(O)cc1`, the T/C by setting is: (dose: 66.0 mg/kg/injection, schedule: Q01DX009 (ip), vehicle: saline with Tween-80) 100 % of control; under setting [12], 109 % of control; (dose: 150.0 mg/kg/injection, schedule: Q01DX009 (ip), vehicle: saline with Tween-80) 118 % of control.
